Results on one molecule are retold here after patent US11357813B2, “Composition comprising tannins” (ABOCA S.P.A SOCIETÀ AGRICOLA, priority 2015, dated 2022).

The subject of data set [1] is white male mouse oropharynx sections (oral mucosa). As to the kind of experiment: FeCl3 staining of oropharynx sections: interaction of tannin-containing extracts and compositions with the oral mucosa. It counts as binding. The settings on record: sections treated 1 hour with 10%, 5%, 1% and 0.1% in distilled water (w/v); 2% FeCl3 for 15 minutes; optical microscope 40x. The procedure: 1. Assessment of interaction among plant extracts containing tannins, plant extracts not containing tannins and oral mucosa.
2 μm-thick sections of untreated white male mouse oropharynx, fixed in formalin with 10% phosphate buffer, were used.
Separate deparaffinized and hydrated sections were treated for 1 hour, respectively with
1—10%, 5%, 1% and 0.1% tannic acid in distilled water (weight/volume)
2—10%, 5%, 1% and 0.1% Agrimonia eupatoria extract in distilled water (w/v), equal to, respectively, 100 mg/ml, 50 mg/ml, 10 mg/ml and 1 mg/ml of Agrimonia eupatoria
3—10%, 5%, 1% and 0.1% Hamamelis Virginiana extract in distilled water (w/v), equal to, respectively, 100 mg/ml, 50 mg/ml, 10 mg/ml and 1 mg/ml of Hamamelis Virginiana
4—10%, 5%, 1% and 0.1% Aloe vera extract in distilled water (w/v)
5—10%, 5%, 1% and 0.1% Commiphora myrrha in distilled water (w/v)
6—composition of the invention in the form of tablets (composition example B) in a 10%, 20% 30% and 50% solution, equal to, respectively, 6.67 mg/ml, 13.34 mg/ml, 20.01 mg/ml and 33.35 mg/ml of Agrimonia eupatoria
7—composition of the invention in the form of spray (composition example C) in a 10%, 20%, 50% and 100% solution, equal to, respectively, 3.3 mg/ml, 6.6 mg/ml, 16.5 mg/ml and 33 mg/ml of Agrimonia eupatoria, […]
The sections were analyzed at the optical microscope (40× magnification) and photographed with a digital camera.

A further data set relates to laboratory animals. To be noted: cited from earlier work.

For the molecule `O=C(OC[C@H]1O[C@@H](OC(=O)c2cc(O)c(O)c(OC(=O)c3cc(O)c(O)c(O)c3)c2)[C@H](OC(=O)c2cc(O)c(O)c(OC(=O)c3cc(O)c(O)c(O)c3)c2)[C@@H](OC(=O)c2cc(O)c(O)c(OC(=O)c3cc(O)c(O)c(O)c3)c2)[C@@H]1OC(=O)c1cc(O)c(O)c(OC(=O)c2cc(O)c(O)c(O)c2)c1)c1cc(O)c(O)c(OC(=O)c2cc(O)c(O)c(O)c2)c1` [Sample 1, tannic acid], in data set [1], the “FeCl3 staining of oropharynx sections” value was “Staining intensity is dependent on concentration”. For the same molecule, the “tumour finding after subcutaneous administration” value with laboratory animals is “onset of hepatic tumours”.
